Measured values: patent US11872210B2, “Thiol isomerases inhibitors and use thereof” (WESTERN NEW ENGLAND UNIVERSITY, priority 2017, dated 2024)

Columns and labels:
ERp57 = target: T1, ERp57 (Homo sapiens, UniProt P30101); assay: Insulin-based turbidometric assay of thiol isomerase inhibitory activity (ERp57); type: biochemical; details: specificity assay, insulin turbidity
T1 construct: purchased AbCam (Cambridge Mass.)
T1 sequence (P30101 25-505): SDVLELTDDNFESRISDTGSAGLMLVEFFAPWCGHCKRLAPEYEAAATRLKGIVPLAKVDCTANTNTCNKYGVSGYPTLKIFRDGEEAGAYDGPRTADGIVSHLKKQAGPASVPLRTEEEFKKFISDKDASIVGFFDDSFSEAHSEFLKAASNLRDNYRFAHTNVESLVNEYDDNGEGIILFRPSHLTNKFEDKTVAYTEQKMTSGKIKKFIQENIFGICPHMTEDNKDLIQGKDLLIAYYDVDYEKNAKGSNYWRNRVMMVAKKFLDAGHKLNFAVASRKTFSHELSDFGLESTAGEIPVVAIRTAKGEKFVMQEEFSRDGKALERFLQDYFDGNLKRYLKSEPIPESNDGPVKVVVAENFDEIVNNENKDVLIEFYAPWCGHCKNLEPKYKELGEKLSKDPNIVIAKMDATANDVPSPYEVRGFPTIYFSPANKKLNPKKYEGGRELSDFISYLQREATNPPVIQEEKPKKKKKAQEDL

human washed platelets = assay: Collagen stimulated platelet aggregation; type: cell-based; details: collagen 1 μg/mL, 3 minutes
Protocol: Human Platelet Preparation: 50 mL of blood was drawn from drug free, consenting individuals, into a syringe containing 5 mL sodium citrate (4% w/v) and 7.5 mL warmed ACD (85 mM sodium citrate, 71 mM citric acid and 110 mM glucose). Blood was centrifuged at 102 g for 20 minutes to obtain platelet-rich plasma (PRP), which was then decanted and 104 prostacyclin (PGI2 125 μg/mL, solubilized in ethanol) added. Platelets were pelleted by centrifugation at 1413 g for 10 minutes, platelet poor plasma was discarded and the pellet resuspended in 25 mL Tyrode's-HEPES buffer (134 mM NaCl, 2.9 mM KCl, 0.34 mM Na2HPO4, 12 mM NaHCO3, 20 mM HEPES, 1 mM MgCl2 and 5 mM glucose pH 7.3), 3 mL of ACD and 10 μL PGI2 were added and then following centrifugation at 1413 g for 10 minutes, the platelet pellet was re-suspended to the appropriate cell density using Tyrode's buffer. Platelets were rested for 30 minutes at 30° C. to allow platelet responses to recover.
Platelet Aggregation: 445 μL of washed platelets at (4×10^8 cells/mL) were incubated for 5 minutes with vehicle (0.1% (v/v) DMSO) or 54 zafirlukast or montelukast. 50 μL of collagen 1 μg/mL (final), was added and light transmission monitored for 3 minutes at 37° C. with constant stirring (1200 rpm) using an aggregometer (Chronolog, USA).
Statistical analyses: All raw data was analyzed by 1-way ANOVA and where appropriate normalized to vehicle. GraphPad Prism was used to perform statistical analysis by ANOVA or students T test. The level of significance of p values is as follows, *p<0.05,**p<0.01, ***p<0.005. Data presented are mean+/−standard error of the mean.
Zafirlukast inhibits platelet aggregation: Human washed platelets (4×10^8 cells/mL) were pre-treated with 0.1 μM-10 μM zafirlukast or vehicle. Platelets were stimulated with collagen 1 μg/mL and allowed to aggregate for 3 minutes. Aggregation traces representative of the response were obtained and dose responses compared.

specificity among thiol isomerases (ERp57)	Structure (SMILES)	platelet aggregation, normalized to vehicle (human washed platelets; 10 μM)	inhibition at 2.5 µM (human washed platelets; Homo sapiens, Platelet, 0.05 h, 2.5 μM)	inhibition at 3.75 µM (human washed platelets; Homo sapiens, Platelet, 0.05 h, 3.75 μM)	inhibition at 5 µM (human washed platelets; Homo sapiens, Platelet, 0.05 h, 5 μM)	inhibition at 10 µM (human washed platelets; Homo sapiens, Platelet, 0.05 h, 10 μM)
specific for ERp57	CC(C)(C=O)Cc1cc(C(C)(C)C)c(O)c(C(C)(C)C)c1 [CGP-13501]					
	CC(C)(O)c1ccccc1CC[C@@H](SCC1(CC(=O)O)CC1)c1cccc(/C=C/c2ccc3ccc(Cl)cc3n2)c1 [montelukast, [R-(E)]-1-[[[1-[3-[2-(7-chloro-2-quinolinyl)ethenyl]phenyl]-3-[2-(7-chloro-2-quinolinyl)ethenyl]phenyl]-3-[2-(1-hydroxy-1-methylethyl)phenyl]propyl]thio]methyl cyclopropane acetic acid]	3.99±0.800%	62.1%	83.6%	90.6%	96.1%
